Target: T1, GPR158 E271A mutant (Homo sapiens, UniProt Q5T848, E271A)
T1 construct: glycine site in Cache domain
T1 sequence (Q5T848 24-1215 E271A): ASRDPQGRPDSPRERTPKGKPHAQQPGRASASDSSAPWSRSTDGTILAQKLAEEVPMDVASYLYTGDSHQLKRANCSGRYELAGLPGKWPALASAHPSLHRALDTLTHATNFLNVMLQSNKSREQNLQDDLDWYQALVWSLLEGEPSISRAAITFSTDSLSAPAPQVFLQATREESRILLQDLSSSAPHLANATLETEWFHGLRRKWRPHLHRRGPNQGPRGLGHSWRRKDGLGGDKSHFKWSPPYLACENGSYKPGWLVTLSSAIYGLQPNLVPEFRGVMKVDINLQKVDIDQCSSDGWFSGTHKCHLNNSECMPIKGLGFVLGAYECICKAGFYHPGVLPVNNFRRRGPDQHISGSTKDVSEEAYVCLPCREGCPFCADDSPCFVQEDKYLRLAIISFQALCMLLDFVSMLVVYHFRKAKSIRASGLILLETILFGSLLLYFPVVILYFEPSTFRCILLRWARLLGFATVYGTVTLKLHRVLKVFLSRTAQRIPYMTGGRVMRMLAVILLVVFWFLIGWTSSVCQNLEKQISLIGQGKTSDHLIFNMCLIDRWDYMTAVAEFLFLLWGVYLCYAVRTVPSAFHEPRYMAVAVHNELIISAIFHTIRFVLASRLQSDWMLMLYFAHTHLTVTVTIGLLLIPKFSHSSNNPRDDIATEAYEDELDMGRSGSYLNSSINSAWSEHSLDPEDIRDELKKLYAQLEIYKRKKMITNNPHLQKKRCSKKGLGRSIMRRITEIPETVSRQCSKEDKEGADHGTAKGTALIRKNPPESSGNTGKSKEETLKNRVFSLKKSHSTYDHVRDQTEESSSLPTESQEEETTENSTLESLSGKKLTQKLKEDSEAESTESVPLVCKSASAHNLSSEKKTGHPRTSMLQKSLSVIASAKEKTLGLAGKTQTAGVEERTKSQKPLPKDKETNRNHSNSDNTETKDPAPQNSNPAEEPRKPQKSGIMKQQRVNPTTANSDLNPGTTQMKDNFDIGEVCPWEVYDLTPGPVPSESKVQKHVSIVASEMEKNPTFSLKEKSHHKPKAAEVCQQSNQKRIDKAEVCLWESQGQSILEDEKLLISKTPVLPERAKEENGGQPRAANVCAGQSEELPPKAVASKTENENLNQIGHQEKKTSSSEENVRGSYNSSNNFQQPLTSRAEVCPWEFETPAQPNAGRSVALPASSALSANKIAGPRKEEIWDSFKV
Assay: Radioligand binding assay on GPR158 mutant E271A
Description: FIGS. 11A-11G. Probing Cache domain of GPR158 as a ligand binding site A) Computational docking of glycine into putative ligand binding pocket on GPR158 Cache domain. Glycine and directly interacting residues are shown as sticks. Hydrogen bonds and van der Waals interactions are shown as dotted lines. B) Diagram showing interactions in the docked model of glycine against GPR158 Cache domain. Hydrogen bonds are shown as dashed lines, van der Waals interactions are shown as intersecting semicircles, and the secondary structural context of Ser266 and Tyr269 is shown as an arc. Dagger indicates a residue implicated in glycine binding in 11A. C) Radioligand binding assay of ^3H-glycine in cells expressing GPR158 mutants. Data shown mean±s.e.m. of 3 independent experiments, *p<0.05, ns=p>0.05 one-way ANOVA. D) Functional evaluation of GPR158 mutants in GAP BRET assay. Error bars are mean±s.e.m. of 3 independent experiments in triplicate. *p<0.05, **p<0.01, ***p<0.001, ****p<0.0001, ns=p>0.05, two-way ANOVA Columns with no fill (Ctrl), columns with angled-line fill (Glycine) E) Quantification of glycine inhibitory effect on kGAP normalized to the effect seen with WT receptor. […]
Whole cell binding was performed using cDNA of GPR158-venus or each GPR158-venus mutant or empty pcDNA3.1+ for ctrl cells. […] Finally radioactivity was measured using the liquid scintillation analyzer Tri-Carb 4910 TR.

NCC(=O)O [^3H-glycine, [^3H]-glycine]
[^3H]-glycine binding: near complete loss

Source: US20260376293A1, “METHODS FOR STUDYING GPR158 PHARMACOLOGY AND IDENTIFICATION OF ITS LIGANDS” (UNIVERSITY OF FLORIDA RESEARCH FOUNDATION, INCORPORATED, priority 2022, published 2026)
